Measured values from publication PMC3983011 (2014).

Legend:
Conditions in all cases: 150 mM NaCl, 5 mM MgCl2; 10 mM HEPES, pH 7.4, 25 °C; immobilised aptamer
[1] = test system: minimal Tyr 1 tyrosine aptamer (RNA, aptamer) GGGGGCAGUCAACUCGUAAGAUGGCCUUACAGCGGUCAAUACGGGGGUCAUCAGAUAGGGAGGCCCCCCAAAAAAAAAAAAAAAAAAAAAAAA; assay: SPR, steady-state affinity fit
[2] = test system: c-di-GMP class II riboswitch (RNA, riboswitch) GGGUAUUUAUAGAAACUGUGAAGUAUAUCUUAAACCUGGGCACUUAAAAGAUAUAUGGAGUUAGUAGUGCAACCUGCUAUAAAUACCCCAAAAAAAAAAAAAAAAAAAAAAAA; assay: SPR kinetics, kd/ka, 1:1 fit
[3] = test system: c-di-GMP class II riboswitch (RNA, riboswitch) GGGUAUUUAUAGAAACUGUGAAGUAUAUCUUAAACCUGGGCACUUAAAAGAUAUAUGGAGUUAGUAGUGCAACCUGCUAUAAAUACCCCAAAAAAAAAAAAAAAAAAAAAAAA; assay: SPR, steady-state affinity fit
[4] = test system: minimal MG-4 malachite green aptamer (RNA, aptamer) GGGAUCCCGACUGGCGAGAGCCAGGUAACGAAUGGAUCCCCCCAAAAAAAAAAAAAAAAAAAAAAAA; assay: SPR kinetics, kd/ka, 1:1 fit
[5] = test system: minimal MG-4 malachite green aptamer (RNA, aptamer) GGGAUCCCGACUGGCGAGAGCCAGGUAACGAAUGGAUCCCCCCAAAAAAAAAAAAAAAAAAAAAAAA; assay: SPR, steady-state affinity fit
[6] = test system: TCT8-4 theophylline aptamer (RNA, aptamer) GGGAAGUGAUACCAGCAUCGUCUUGAUGCCCUUGGCAGCACUUCCCCCAAAAAAAAAAAAAAAAAAAAAAAA; assay: SPR kinetics, kd/ka, 1:1 fit
[7] = test system: TCT8-4 theophylline aptamer (RNA, aptamer) GGGAAGUGAUACCAGCAUCGUCUUGAUGCCCUUGGCAGCACUUCCCCCAAAAAAAAAAAAAAAAAAAAAAAA; assay: SPR, steady-state affinity fit
[8] = test system: minimal thiM TPP riboswitch (RNA, riboswitch) GGGACUCGGGGUGCCCUUCUGCGUGAAGGCUGAGAAAUACCCGUAUCACCUGAUCUGGAUAAUGCCAGCGUAGGGAAGUCCCCCAAAAAAAAAAAAAAAAAAAAAAAA; assay: SPR kinetics, kd/ka, 1:1 fit
[9] = test system: 44.Cit11 citrulline aptamer (RNA, aptamer) GGGACGAGAAGGAGUGCUGGUUAUACUAGCGGUUAGGUCACUCGUCCCCCAAAAAAAAAAAAAAAAAAAAAAAA; assay: SPR, steady-state affinity fit
[10] = test system: 44.Arg11 arginine aptamer (RNA, aptamer) GGGACGAGAAGGAGCGCUGGUUAUACUAGCAGGUAGGUCACUCGUCCCCCAAAAAAAAAAAAAAAAAAAAAAAA; assay: SPR, steady-state affinity fit
[11] = test system: 35FMN-2 flavin mononucleotide aptamer (RNA, aptamer) GGGCGUGUAGGAUAUCGUGUUCGAGAAGGACACGCCCCCCAAAAAAAAAAAAAAAAAAAAAAAA; assay: SPR kinetics, kd/ka, 1:1 fit
[12] = test system: 35FMN-2 flavin mononucleotide aptamer (RNA, aptamer) GGGCGUGUAGGAUAUCGUGUUCGAGAAGGACACGCCCCCCAAAAAAAAAAAAAAAAAAAAAAAA; assay: SPR, steady-state affinity fit
[13] = test system: DH25.42 ATP aptamer (DNA, aptamer) CCTGGGGGAGTATTGCGGAGGAAGGAAAAAAAAAAAAAAAAAAAAAAAA; assay: SPR, steady-state affinity fit

`N[C@@H](Cc1ccc(O)cc1)C(=O)O` was tested, and the “KD,equilibrium” value [1] was 17000 ± 6000 nM.

In the case of `Nc1nc2c(ncn2[C@@H]2O[C@@H]3COP(=O)(O)O[C@H]4[C@@H](O)[C@H](n5cnc6c(=O)[nH]c(N)nc65)O[C@@H]4COP(=O)(O)O[C@H]3[C@H]2O)c(=O)[nH]1`, the “KD,kinetic” value [2] is reported as 60 ± 31 nM and the “KD,equilibrium” value [3] is reported as 120 ± 20 nM.

`CN(C)c1ccc(C(=C2C=CC(=[N+](C)C)C=C2)c2ccccc2)cc1` was tested, and the “KD,kinetic” value [4] was 950 ± 340 nM and the “KD,equilibrium” value [5] was 2000 ± 100 nM.

For `Cn1c(=O)c2[nH]cnc2n(C)c1=O`, the “KD,kinetic” value [6] was 430 ± 40 nM and the “KD,equilibrium” value [7] was 340 ± 20 nM.

`Cc1ncc(C[n+]2csc(CCOP(=O)(O)OP(=O)(O)O)c2C)c(N)n1` was tested, and the “KD,kinetic” value [8] was 0.89 ± 0.8 nM.

In the case of `NC(=O)NCCC[C@H](N)C(=O)O`, the “KD,equilibrium” value [9] is reported as 31000 ± 1000 nM.

`N=C(N)NCCC[C@H](N)C(=O)O` was tested, and the “KD,equilibrium” value [10] was 140000 ± 40000 nM.

In the case of `Cc1cc2nc3c(=O)[nH]c(=O)nc-3n(C[C@H](O)[C@H](O)[C@H](O)COP(=O)(O)O)c2cc1C`, the “KD,kinetic” value [11] is reported as 1100 ± 400 nM and the “KD,equilibrium” value [12] is reported as 710 ± 20 nM.

With `Nc1ncnc2c1ncn2[C@@H]1O[C@H](COP(=O)(O)OP(=O)(O)OP(=O)(O)O)[C@@H](O)[C@H]1O` the “KD,equilibrium” value [13] was 8800 ± 3000 nM.
